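Dose response: 5 concentrations. Exposure: 48 h. Format: 96-well plates. Endpoint: linear interpolation; highest concentration if not reached. At the GI50, growth is halved. At the TGI there is no net growth.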
Assays:
Experiment in all cases: NCI anticancer screen, dose series, 48 h
[1] = test system: 786-0 renal
[2] = test system: A498 renal
[3] = test system: A549 NSCLC
[4] = test system: ACHN renal
[5] = test system: BT-549 breast
[6] = test system: CAKI-1 renal
[7] = test system: CCRF-CEM leukemia
[8] = test system: DU-145 prostate
[9] = test system: EKVX NSCLC
[10] = test system: HCC-2998 colon
[11] = test system: HCT-116 colon
[12] = test system: HCT-15 colon
[13] = test system: HOP-62 NSCLC
[14] = test system: HOP-92 NSCLC
[15] = test system: HS 578T breast
[16] = test system: HT29 colon
[17] = test system: IGROV1 ovarian
[18] = test system: K-562 leukemia
[19] = test system: KM12 colon
[20] = test system: LOX IMVI melanoma
[21] = test system: M14 melanoma
[22] = test system: MALME-3M melanoma
[23] = test system: MCF7 breast
[24] = test system: MDA-MB-231 breast
[25] = test system: MDA-MB-435
[26] = test system: MOLT-4 leukemia
[27] = test system: NCI-H226 lung
[28] = test system: NCI-H23 lung
[29] = test system: NCI-H460 lung
[30] = test system: NCI-H522 lung
[31] = test system: NCI/ADR-RES ovarian
[32] = test system: OVCAR-4 ovarian
[33] = test system: OVCAR-5 ovarian
[34] = test system: OVCAR-8 ovarian
[35] = test system: RPMI-8226 leukemia
[36] = test system: RXF 393 renal
[37] = test system: SF-268 CNS
[38] = test system: SF-295 CNS
[39] = test system: SF-539 CNS
[40] = test system: SK-MEL-2 melanoma
[41] = test system: SK-MEL-28 melanoma
[42] = test system: SK-MEL-5 melanoma
[43] = test system: SN12C renal
[44] = test system: SNB-19 CNS
[45] = test system: SNB-75 CNS
[46] = test system: SR leukemia
[47] = test system: SW-620 colon
[48] = test system: T-47D breast
[49] = test system: TK-10 renal
[50] = test system: U251 CNS
[51] = test system: UACC-257 melanoma
[52] = test system: UACC-62 melanoma
[53] = test system: UO-31 renal

Compound `COc1cc(/C=N/n2cnc3oc(-c4ccccc4)cc3c2=N)cc(CN2CCCCC2)c1O` has a GI50 [1] of 1480 nM, a TGI [1] of 3.03 µM and a GI50 [2] of 1730 nM. It also gave a TGI [2] of 3.28 µM, a GI50 [3] of 1700 nM and a TGI [3] of 3.45 µM. For the same compound, the GI50 [4] was 1360 nM, the TGI [4] was 2670 nM and the GI50 [5] was 2120 nM. It also gave a TGI [5] of 4.19 µM, a GI50 [6] of 1430 nM and a TGI [6] of 2770 nM. It also gave a GI50 [7] of 324 nM, a TGI [7] of 1250 nM and a GI50 [8] of 1800 nM. It also gave a TGI [8] of 3.32 µM, a GI50 [9] of 1890 nM and a TGI [9] of 3.68 µM. For the same compound, the GI50 [10] was 1850 nM, the TGI [10] was 3.34 µM and the GI50 [11] was 310 nM. For the same compound, the TGI [11] was 959 nM, the GI50 [12] was 1770 nM and the TGI [12] was 3.49 µM. It also gave a GI50 [13] of 1790 nM, a TGI [13] of 3.77 µM and a GI50 [14] of 1480 nM. For the same compound, the TGI [14] was 3.28 µM, the GI50 [15] was 1830 nM and the TGI [15] was 4.36 µM. For the same compound, the GI50 [16] was 489 nM, the TGI [16] was 1790 nM and the GI50 [17] was 1690 nM. For the same compound, the TGI [17] was 3.35 µM, the GI50 [18] was 201 nM and the TGI [18] was 458 nM. For the same compound, the GI50 [19] was 1810 nM, the TGI [19] was 3.39 µM and the GI50 [20] was 444 nM. For the same compound, the TGI [20] was 1520 nM, the GI50 [21] was 1560 nM and the TGI [21] was 3.18 µM. For the same compound, the GI50 [22] was 1790 nM, the TGI [22] was 3.72 µM and the GI50 [23] was 512 nM. For the same compound, the TGI [23] was 1990 nM, the GI50 [24] was 1640 nM and the TGI [24] was 3.35 µM. For the same compound, the GI50 [25] was 1640 nM, the TGI [25] was 3.06 µM and the GI50 [26] was 2250 nM. For the same compound, the TGI [26] was 6.57 µM, the GI50 [27] was 2010 nM and the TGI [27] was 4.55 µM. The GI50 [28] was 1810 nM, the TGI [28] was 3.57 µM and the GI50 [29] was 1430 nM. It also gave a TGI [29] of 3.08 µM, a GI50 [30] of 2010 nM and a TGI [30] of 4.51 µM. The GI50 [31] was 2140 nM, the TGI [31] was 4.91 µM and the GI50 [32] was 1750 nM. For the same compound, the TGI [32] was 3.67 µM, the GI50 [33] was 1890 nM and the TGI [33] was 3.46 µM. It also gave a GI50 [34] of 1950 nM, a TGI [34] of 4.7 µM and a GI50 [35] of 2130 nM. It also gave a TGI [35] of 5.38 µM, a GI50 [36] of 1410 nM and a TGI [36] of 3.15 µM. For the same compound, the GI50 [37] was 1970 nM, the TGI [37] was 4.03 µM and the GI50 [38] was 1830 nM. It also gave a TGI [38] of 3.39 µM, a GI50 [39] of 1750 nM and a TGI [39] of 3.33 µM. It also gave a GI50 [40] of 1790 nM, a TGI [40] of 3.66 µM and a GI50 [41] of 1630 nM. It also gave a TGI [41] of 3.25 µM, a GI50 [42] of 1760 nM and a TGI [42] of 3.17 µM. It also gave a GI50 [43] of 1550 nM, a TGI [43] of 3.21 µM and a GI50 [44] of 1980 nM. The TGI [44] was 3.73 µM, the GI50 [45] was 1390 nM and the TGI [45] was 2790 nM. For the same compound, the GI50 [46] was 247 nM, the TGI [46] was 687 nM and the GI50 [47] was 1910 nM. For the same compound, the TGI [47] was 3.76 µM, the GI50 [48] was 2040 nM and the TGI [48] was 4.62 µM. It also gave a GI50 [49] of 1910 nM, a TGI [49] of 3.46 µM and a GI50 [50] of 1830 nM. For the same compound, the TGI [50] was 3.6 µM, the GI50 [51] was 1930 nM and the TGI [51] was 3.88 µM. The GI50 [52] was 1830 nM, the TGI [52] was 3.35 µM and the GI50 [53] was 1390 nM. The TGI [53] was 2920 nM.
